Measurements from ChEMBL document CHEMBL1201862, “PubChem BioAssay data set” (2004).
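Tested at 5 concentrations; 48 h exposure; 96-well plates; endpoints linearly interpolated, else capped at highest concentration. Here, GI50 denotes the concentration required for 50% inhibition of growth.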 Calls of active or inactive are those of the source. Cut-off read from the data, not from the text of the source: active = GI50 up to about 1.1 µM and inactive = higher.

Assays:
Test in all cases: NCI-60 cell line screen, 48 h
SNB-75 = tested on: SNB-75
UACC-257 = tested on: UACC-257
UO-31 = tested on: UO-31
OVCAR-3 = tested on: OVCAR-3
NCI-H23 = tested on: NCI-H23
OVCAR-8 = tested on: OVCAR-8
Malme-3M = tested on: Malme-3M
SK-MEL-28 = tested on: SK-MEL-28
U-251 = tested on: U-251
MDA-MB-435 = tested on: MDA-MB-435
DU-145 = tested on: DU-145
RPMI-8226 = tested on: RPMI-8226
CAKI-1 = tested on: CAKI-1
HT-29 = tested on: HT-29
NCI-H460 = tested on: NCI-H460
MDA-N = tested on: MDA-N
NCI-H522 = tested on: NCI-H522
TK-10 = tested on: TK-10
786-0 = tested on: 786-0
A549 = tested on: A549
IGROV-1 = tested on: IGROV-1
NCI-H226 = tested on: NCI-H226
ACHN = tested on: ACHN
HCT-15 = tested on: HCT-15
SK-OV-3 = tested on: SK-OV-3
HOP-92 = tested on: HOP-92
COLO 205 = tested on: COLO 205
SF-295 = tested on: SF-295
MDA-MB-231 = tested on: MDA-MB-231
SN12C = tested on: SN12C
MCF7 = tested on: MCF7
LOX IMVI = tested on: LOX IMVI
HCT-116 = tested on: HCT-116
SW-620 = tested on: SW-620
M14 = tested on: M14
NCI/ADR-RES = tested on: NCI/ADR-RES
Hs-578T = tested on: Hs-578T
SNB-19 = tested on: SNB-19
HOP-62 = tested on: HOP-62
PC-3 = tested on: PC-3
OVCAR-5 = tested on: OVCAR-5
KM12 = tested on: KM12
RXF 393 = tested on: RXF 393
UACC-62 = tested on: UACC-62
SK-MEL-2 = tested on: SK-MEL-2
OVCAR-4 = tested on: OVCAR-4
A498 = tested on: A498
SF-539 = tested on: SF-539
SF-268 = tested on: SF-268
BT-549 = tested on: BT-549
SK-MEL-5 = tested on: SK-MEL-5
K562 = tested on: K562
EKVX = tested on: EKVX
T47D = tested on: T47D
HCC 2998 = tested on: HCC 2998
SR = tested on: SR
MOLT-4 = tested on: MOLT-4
CCRF-CEM = tested on: CCRF-CEM
HL-60 = tested on: HL-60

Measured: GI50

C/C(=N\NS(=O)(=O)c1ccc(C)cc1)P(=O)(O)O
> 100 µM: HCT-15
inactive: SNB-75 > 100 µM | UACC-257 > 100 µM | UO-31 > 100 µM | OVCAR-3 > 100 µM | NCI-H23 > 100 µM | OVCAR-8 > 100 µM | Malme-3M > 100 µM | SK-MEL-28 > 100 µM | U-251 > 100 µM | MDA-MB-435 > 100 µM | DU-145 > 100 µM | RPMI-8226 > 100 µM | CAKI-1 > 100 µM | HT-29 > 100 µM | NCI-H460 > 100 µM | MDA-N > 100 µM | NCI-H522 > 100 µM | TK-10 > 100 µM | 786-0 > 100 µM | A549 > 100 µM | IGROV-1 > 100 µM | NCI-H226 > 100 µM | ACHN > 100 µM | SK-OV-3 > 100 µM | HOP-92 > 100 µM | COLO 205 > 100 µM | SF-295 > 100 µM | MDA-MB-231 > 100 µM | SN12C > 100 µM | MCF7 > 100 µM | LOX IMVI > 100 µM | HCT-116 > 100 µM | SW-620 > 100 µM | M14 > 100 µM | NCI/ADR-RES > 100 µM | Hs-578T > 100 µM | SNB-19 > 100 µM | HOP-62 > 100 µM | PC-3 > 100 µM | OVCAR-5 > 100 µM | KM12 > 100 µM | RXF 393 > 100 µM | UACC-62 > 100 µM | SK-MEL-2 > 100 µM | OVCAR-4 > 100 µM | A498 > 100 µM | SF-539 > 100 µM | SF-268 > 100 µM | BT-549 > 100 µM | SK-MEL-5 > 100 µM | K562 > 100 µM | EKVX > 100 µM | T47D > 100 µM

O=C1NC(N2CCCCC2)=N/C1=C\c1ccccc1
inactive: SNB-75 > 100 µM | UACC-257 > 100 µM | UO-31 > 100 µM | HCC 2998 > 100 µM | OVCAR-3 > 100 µM | NCI-H23 > 100 µM | OVCAR-8 > 100 µM | Malme-3M > 100 µM | SK-MEL-28 > 100 µM | U-251 > 100 µM | MDA-MB-435 > 100 µM | SR > 100 µM | DU-145 > 100 µM | RPMI-8226 > 100 µM | MOLT-4 > 100 µM | CAKI-1 > 100 µM | HT-29 > 100 µM | MDA-N > 100 µM | NCI-H522 > 100 µM | TK-10 > 100 µM | 786-0 > 100 µM | A549 > 100 µM | IGROV-1 > 100 µM | NCI-H226 > 100 µM | ACHN > 100 µM | SK-OV-3 > 100 µM | HOP-92 > 100 µM | CCRF-CEM > 100 µM | COLO 205 > 100 µM | SF-295 > 100 µM | MDA-MB-231 > 100 µM | SN12C > 100 µM | MCF7 > 100 µM | LOX IMVI > 100 µM | HCT-116 > 100 µM | SW-620 > 100 µM | M14 > 100 µM | NCI/ADR-RES > 100 µM | Hs-578T > 100 µM | SNB-19 > 100 µM | HOP-62 > 100 µM | PC-3 > 100 µM | OVCAR-5 > 100 µM | HL-60 > 100 µM | KM12 > 100 µM | RXF 393 > 100 µM | UACC-62 > 100 µM | SK-MEL-2 > 100 µM | OVCAR-4 > 100 µM | SF-539 > 100 µM | SF-268 > 100 µM | BT-549 > 100 µM | EKVX > 100 µM | T47D > 100 µM
> 100 µM: HCT-15

CCCCCCC(O)C(=O)OC1C2C(CC1(C)C)C(O)C13OC1C(O)C1(CO1)[C@@]23C (some centres undefined)
inactive: SNB-75 8.83 µM | UACC-257 42.3 µM | UO-31 66.8 µM | OVCAR-3 32.1 µM | NCI-H23 58.2 µM | OVCAR-8 69.8 µM | Malme-3M > 100 µM | SK-MEL-28 39.3 µM | U-251 37.1 µM | MDA-MB-435 50.9 µM | SR 52.2 µM | DU-145 > 100 µM | RPMI-8226 40.9 µM | MOLT-4 16.1 µM | CAKI-1 > 100 µM | NCI-H460 > 10 µM | MDA-N 45.4 µM | NCI-H522 61.1 µM | TK-10 44.9 µM | 786-0 25.4 µM | A549 28.1 µM | IGROV-1 43 µM | ACHN > 10 µM | SK-OV-3 61.2 µM | CCRF-CEM 27.5 µM | COLO 205 49.2 µM | SF-295 71.4 µM | MDA-MB-231 48.6 µM | SN12C 54.7 µM | MCF7 36.4 µM | LOX IMVI 19.2 µM | HCT-116 47.4 µM | M14 40.6 µM | NCI/ADR-RES > 100 µM | Hs-578T 28.2 µM | SNB-19 65.2 µM | HOP-62 58.7 µM | PC-3 17.3 µM | OVCAR-5 > 100 µM | HL-60 > 100 µM | KM12 47.6 µM | RXF 393 23 µM | UACC-62 26 µM | OVCAR-4 22.7 µM | SF-268 20.1 µM | BT-549 50.1 µM | SK-MEL-5 13.4 µM | K562 30.3 µM | EKVX 54.5 µM | T47D 62.5 µM
81.7 µM: HCT-15

CN(C)CCCN1c2ccc([N+](=O)[O-])cc2CCc2cc([N+](=O)[O-])ccc21
inactive: SNB-75 15.3 µM | UACC-257 13.9 µM | UO-31 12 µM | HCC 2998 11.9 µM | OVCAR-3 16 µM | NCI-H23 18.6 µM | OVCAR-8 15.8 µM | Malme-3M 17.8 µM | SK-MEL-28 15 µM | U-251 13.7 µM | MDA-MB-435 14.5 µM | DU-145 17.4 µM | RPMI-8226 15.5 µM | MOLT-4 10.1 µM | CAKI-1 14.5 µM | HT-29 12.4 µM | NCI-H460 12.6 µM | MDA-N 13.6 µM | NCI-H522 17.4 µM | TK-10 12 µM | 786-0 13.9 µM | A549 16.4 µM | IGROV-1 14.6 µM | NCI-H226 15.7 µM | ACHN 15.6 µM | SK-OV-3 14.9 µM | HOP-92 5.41 µM | CCRF-CEM 11.4 µM | COLO 205 14.2 µM | SF-295 15.6 µM | MDA-MB-231 10.3 µM | SN12C 15 µM | MCF7 15.6 µM | LOX IMVI 13.2 µM | HCT-116 13.7 µM | SW-620 16 µM | M14 14.5 µM | NCI/ADR-RES 16.4 µM | Hs-578T 17.4 µM | SNB-19 15.4 µM | HOP-62 12.5 µM | PC-3 13.6 µM | OVCAR-5 13.9 µM | HL-60 14.1 µM | KM12 16 µM | RXF 393 11.7 µM | UACC-62 14.7 µM | SK-MEL-2 17.5 µM | A498 10.3 µM | SF-539 18.3 µM | SF-268 14.5 µM | BT-549 15.4 µM | SK-MEL-5 10.6 µM | K562 13.1 µM | EKVX 15.2 µM | T47D 16.1 µM
17.4 µM: HCT-15

N=C(N)SCC(=O)O
inactive: SNB-75 > 100 µM | UACC-257 > 100 µM | UO-31 > 100 µM | HCC 2998 > 100 µM | OVCAR-3 > 100 µM | NCI-H23 > 100 µM | OVCAR-8 > 100 µM | Malme-3M > 100 µM | SK-MEL-28 > 100 µM | U-251 > 100 µM | MDA-MB-435 > 100 µM | DU-145 > 100 µM | RPMI-8226 > 100 µM | MOLT-4 > 100 µM | CAKI-1 > 100 µM | HT-29 > 100 µM | NCI-H460 > 100 µM | MDA-N > 100 µM | NCI-H522 > 100 µM | TK-10 > 100 µM | 786-0 > 100 µM | A549 > 100 µM | IGROV-1 > 100 µM | NCI-H226 > 100 µM | ACHN > 100 µM | SK-OV-3 > 100 µM | HOP-92 > 100 µM | CCRF-CEM > 100 µM | COLO 205 > 100 µM | SF-295 > 100 µM | MDA-MB-231 > 100 µM | SN12C > 100 µM | MCF7 > 100 µM | LOX IMVI > 100 µM | HCT-116 > 100 µM | SW-620 > 100 µM | M14 > 100 µM | NCI/ADR-RES > 100 µM | Hs-578T > 100 µM | SNB-19 > 100 µM | HOP-62 > 100 µM | PC-3 > 100 µM | OVCAR-5 > 100 µM | KM12 > 100 µM | RXF 393 > 100 µM | UACC-62 > 100 µM | SK-MEL-2 > 100 µM | OVCAR-4 > 100 µM | A498 > 100 µM | SF-539 > 100 µM | SF-268 > 100 µM | BT-549 > 100 µM | SK-MEL-5 > 100 µM | K562 5.68 µM | EKVX > 100 µM | T47D > 100 µM
> 100 µM: HCT-15
